Test results published in patent US6677309B1, “Anti-cancer drug aldehyde conjugate drugs with enhanced cytotoxicity compounds, compositions and methods” (University Technology Corporation, priority 1997, dated 2004).

Tests used:
MCF-7 cells = assay: In vitro cytotoxicity, colony formation by crystal violet assay, MCF-7; conditions: for fold less toxic than the next conjugate: EPIF versus DAUNF, DAUNF versus DOXF, both sensitive (MCF-7) and resistant (MCF-7/ADR) breast cancer cells
Procedure: The term IC50 as used herein refers to the concentration of drug which inhibits cell growth by 50%, i.e., 50% of cells are viable at the IC50 concentration relative to a no-drug control.
Cells were incubated with drug for 3 h in RPMI (Roswell Park Memorial Institute) 1640 media containing 10% fetal bovine serum and 1% DMSO. Plates, were developed using the crystal violet assay. […] In all cases percent survival was determined by the extent of colony formation six days after drug treatment.
All tissue culture materials were obtained from Gibco Life Technologies (Grand Island, N.Y.) unless otherwise stated. MCF-7 breast cancer cells were obtained from American Type Culture Collection (Rockville, Md.). […] Both cell lines were maintained in vitro by serial culture in phenol red-free RPMI Media 1640 supplemented with 10% fetal bovine serum (Gemini Bio-Products, Calbasas, Calif.), L-glutamine (2 mM), HEPES buffer (10 mM), penicillin (100 units/mL), and streptomycin (100 μg/mL). […] Cells were maintained at 37° C. in a humidified atmosphere of 5% CO2 and 95% air.
Cells were dissociated with trypsin-EDTA, counted, and suspended in growth media to a concentration of 5×10^3 cells/mL. Cell suspensions were dispensed in 200 μL aliquots into 96-well tissue culture plates. Plates were then incubated for 24 h at 37° C. in a humidified atmosphere of 5% CO2 and 95% air. The media was replaced with 180 μL of growth media prior to addition of the cytotoxic agents.
Concentrations were then corrected by measuring the solution absorbance at 480 nm (ε=11,500/mole anthracycline). The solutions were then serially diluted in DMSO to give a series of 100× working concentration solutions. For each concentration, the 100× solution was diluted 1:10 in serum-free RPMI Media 1640. 20 μL of the resulting […] solution was immediately added to the appropriate lane. Additionally, one lane was treated with 20 μL of 10% DMSO in serum-free RPMI (no drug) and one lane replaced with 200 μL of 1.5 M Tris buffer (no cells). The cells were incubated at 37° C. for 3 h. The drug solutions were removed and 200 μL of fresh growth media was added to each well.
The extent of colony formation was determined by use of a crystal violet staining assay (Gilles, R. J. et al. (1986), “Determination of cell number in monolayer cultures,” Anal. Biochem. 159:109-113; Reile, H. et al. (1990), “Computerized determination of growth kinetic curves and doubling times from cells in microcultures,” Anal. Biochem. 187:262-267). […] The cells were then stained with 75 μL of 0.1% crystal violet in deionized water for 30 min. […] The plates were blotted dry and 200 μL of 70% ethanol in water was added to each well to solublize the dye. The plates were stored at 4° C. until solubilization was complete (about 4 h). The optical density of each well was measured on an ELISA plate reader at 588 nm. Relative colony sizes were determined by comparison of the drug treated lanes to the control lanes.
MCF-7 breast cancer cells were obtained from American Type Culture Collection (Rockville, Md.). MCF-7/ADR adriamycin resistant breast cancer cells were a gift of Dr. William W. Wells (Michigan State University). Both cell lines were maintained in vitro by serial culture in phenol red-free RPMI Media 1640 supplemented with 10% fetal bovine serum (Gemini Bio-Products, Calbasas, Calif.), L-glutamine (2 mM), HEPES buffer ([…]), penicillin (100 units/mL), and streptomycin (100 μg/mL). […] Cells were maintained at 37° C. in a humidified atmosphere of 5% CO2 and 95% air.
1640 media containing 10% fetal bovine serum. The resulting 90% media/10% DMSO solutions (v/v) were incubated at 37° C. for 6h.

[1] = system: self-complementary DNA octamer (GC)4; assay: Drug-DNA conjugate formation with (GC)4, HPLC; format: biochemical; conditions: for DNA reacted to form drug-DNA conjugates: 33 μM (GC)4, 33 μM conjugate, 4% DMSO
Procedure: The amount of available formaldehyde was 99 μM (3×33 μM). […] The experiment was also run at 25° C. in pH 6.0 phosphate buffer containing 4% DMSO. […] The ratio for conjugate 1 was assumed to be 24:1, based upon the value for conjugate 2. […] Under these circumstances, the conjugate 1 area was estimated based upon its 480 nm absorbance, assuming the 24:1 ratio for A260:A480.
The formation of drug-DNA conjugates at 25° C. was monitored by HPLC (Method II). […] The experiment was also run in pH 6.0 phosphate buffer containing 4% DMSO.

| Compound | fold less toxic than the next conjugate (MCF-7 cells) | DNA reacted to form drug-DNA conjugates ([1]; pH 6.0 phosphate buffer, 25° C., 5 h) [%] | DNA reacted to form drug-DNA conjugates ([1]; pH 7.3 phosphate buffer, 25° C., 24 h) [%] | DNA that had formed drug-DNA conjugates ([1]; 398 μM (GC)4, 796 μM conjugate, pH 7.3 phosphate buffer, 25° C., 5 h) [%] | IC50 (MCF-7 cells; read-out: IC50 Values, MCF-7, 3 h drug incubation in RPMI 1640, 10% fetal bovine serum, 1% DMSO, colony formation six days after treatment, fresh drug solution) [nM] | times more cytotoxic against the MCF-7 cell line than the parent drug (MCF-7 cells; relative to daunorubicin and doxorubicin, respectively) [times] | fold more toxic to MCF-7 cells than the parent drug (MCF-7 cells; relative to the respective parent drug) [fold] | (GC)4 reacted relative to the equivalent amount of daunorubicin and formaldehyde ([1]; 33 μM (GC)4, 55 μM conjugate, pH 7.4, 25° C., after approximately 1 min) | extent of DNA reaction to drug-DNA conjugates ([1]; 317 μM (GC)4, 357 μM conjugate, pH 7.4 phosphate buffer, 25° C., 41 h) |
| --- | --- | --- | --- | --- | --- | --- | --- | --- | --- |
| COc1cccc2c1C(=O)c1c(O)c3c(c(O)c1C2=O)CC(O)(C(=O)CO)CC3OC1CC2C(OCN3CN2COC2C(C)OC(OC4C[C@](O)(C(=O)CO)Cc5c(O)c6c(c(O)c54)C(=O)c4c(OC)cccc4C6=O)CC23)C(C)O1 (stereo partly shown) [EPIF] | approximately 7 fold | 64 | 68 | 91 | – | – | – | – | – |
| COc1cccc2c1C(=O)c1c(O)c3c(c(O)c1C2=O)C[C@@](O)(C(C)=O)C[C@@H]3O[C@H]1C[C@H]2[C@H](OCN2CN2CO[C@@H]3[C@H](C)O[C@@H](O[C@H]4C[C@](O)(C(C)=O)Cc5c(O)c6c(c(O)c54)C(=O)c4c(OC)cccc4C6=O)C[C@@H]32)[C@H](C)O1 [DAUNF, bis(3′-N-(3′-N,4′-O-methylenedaunorubicinyl))methane] | approximately 7 fold | – | – | – | 4 | 7 | 7 | four times as much (GC)4 | completely reacted |
